According to PubChem BioAssay AID1259407 (Chemical Carcinogenesis Research Information System (CCRIS), 2018):
The source made the active and inactive calls. No rule for the calls is given here.

Test system: CCRIS mutagenicity, Ames/micronucleus/aberration tests
Assay: CCRIS mutagenicity studies
[1] = Test System: AMES SALMONELLA TYPHIMURIUM, Strain/Indicator: TA100, Metabolic Activation: NONE, Method: STANDARD PLATE
[2] = Test System: AMES SALMONELLA TYPHIMURIUM, Strain/Indicator: TA100, Metabolic Activation: NONE, Method: PREINCUBATION
[3] = Test System: AMES SALMONELLA TYPHIMURIUM, Strain/Indicator: TA1535, Metabolic Activation: NONE, Method: PREINCUBATION

## O=[N+]([O-])c1c2ccccc2cc2c3c(ccc12)[C@@H](O)[C@H](O)C=C3
Test System: AMES SALMONELLA TYPHIMURIUM, Strain/Indicator: TA98, Metabolic Activation: NONE, Method: STANDARD PLATE
  mutagenic call: active; positive
[1]
  mutagenic call: inactive; negative

## OCCOCCO
Test System: AMES SALMONELLA TYPHIMURIUM, Strain/Indicator: TA97A, Metabolic Activation: NONE
  mutagenic call: inactive; negative
Test System: AMES SALMONELLA TYPHIMURIUM, Strain/Indicator: TA97A, Metabolic Activation: RAT, LIVER, S-9, AROCLOR 1254
  mutagenic call: inactive; negative
Test System: AMES SALMONELLA TYPHIMURIUM, Strain/Indicator: TA98, Metabolic Activation: HAMSTER, LIVER, S-9, AROCLOR 1254 (10%), Method: PREINCUBATION
  mutagenic call: inactive; negative
Test System: AMES SALMONELLA TYPHIMURIUM, Strain/Indicator: TA98, Metabolic Activation: NONE
  mutagenic call: inactive; negative
Test System: AMES SALMONELLA TYPHIMURIUM, Strain/Indicator: TA98, Metabolic Activation: NONE, Method: PREINCUBATION
  mutagenic call: inactive; negative
Test System: AMES SALMONELLA TYPHIMURIUM, Strain/Indicator: TA98, Metabolic Activation: RAT, LIVER, S-9, AROCLOR 1254
  mutagenic call: inactive; negative
Test System: AMES SALMONELLA TYPHIMURIUM, Strain/Indicator: TA98, Metabolic Activation: RAT, LIVER, S-9, AROCLOR 1254 (10%), Method: PREINCUBATION
  mutagenic call: inactive; negative
Test System: AMES SALMONELLA TYPHIMURIUM, Strain/Indicator: TA100, Metabolic Activation: HAMSTER, LIVER, S-9, AROCLOR 1254 (10%), Method: PREINCUBATION
  mutagenic call: inactive; negative
Test System: AMES SALMONELLA TYPHIMURIUM, Strain/Indicator: TA100, Metabolic Activation: NONE
  mutagenic call: inactive; negative
[2]
  mutagenic call: inactive; negative
Test System: AMES SALMONELLA TYPHIMURIUM, Strain/Indicator: TA100, Metabolic Activation: RAT, LIVER, S-9, AROCLOR 1254
  mutagenic call: inactive; negative
Test System: AMES SALMONELLA TYPHIMURIUM, Strain/Indicator: TA100, Metabolic Activation: RAT, LIVER, S-9, AROCLOR 1254 (10%), Method: PREINCUBATION
  mutagenic call: inactive; negative
Test System: AMES SALMONELLA TYPHIMURIUM, Strain/Indicator: TA102, Metabolic Activation: NONE
  mutagenic call: inactive; negative
Test System: AMES SALMONELLA TYPHIMURIUM, Strain/Indicator: TA102, Metabolic Activation: RAT, LIVER, S-9, AROCLOR 1254
  mutagenic call: inactive; negative
Test System: AMES SALMONELLA TYPHIMURIUM, Strain/Indicator: TA1535, Metabolic Activation: HAMSTER, LIVER, S-9, AROCLOR 1254 (10%), Method: PREINCUBATION
  mutagenic call: inactive; negative
[3]
  mutagenic call: inactive; negative
Test System: AMES SALMONELLA TYPHIMURIUM, Strain/Indicator: TA1535, Metabolic Activation: RAT, LIVER, S-9, AROCLOR 1254 (10%), Method: PREINCUBATION
  mutagenic call: inactive; negative
Test System: AMES SALMONELLA TYPHIMURIUM, Strain/Indicator: TA1537, Metabolic Activation: HAMSTER, LIVER, S-9, AROCLOR 1254 (10%), Method: PREINCUBATION
  mutagenic call: inactive; negative
Test System: AMES SALMONELLA TYPHIMURIUM, Strain/Indicator: TA1537, Metabolic Activation: NONE, Method: PREINCUBATION
  mutagenic call: inactive; negative
Test System: AMES SALMONELLA TYPHIMURIUM, Strain/Indicator: TA1537, Metabolic Activation: RAT, LIVER, S-9, AROCLOR 1254 (10%), Method: PREINCUBATION
  mutagenic call: inactive; negative

## [CH3][Hg][CH3]
End Point: IN VITRO CHROMOSOMAL ABERRATIONS, Test System: HUMAN PERIPHERAL LYMPHOCYTES, Metabolic Activation: NONE
  mutagenic call: active; positive (structural changes and ploidy)
Test System: CHINESE HAMSTER G10, Strain/Indicator: G10/6-THIOGUANINE, Metabolic Activation: NONE
  mutagenic call: inactive; negative
Test System: CHINESE HAMSTER G12, Strain/Indicator: G12/6-THIOGUANINE, Metabolic Activation: NONE
  mutagenic call: inactive; negative
Test System: CHINESE HAMSTER V-79, Strain/Indicator: V-79/6-THIOGUANINE, Metabolic Activation: NONE
  mutagenic call: inactive; negative

## Cc1ccc(CC2CO2)cc1 (stereo not given)
[2]
  mutagenic call: active; positive
[1]
  mutagenic call: active; positive
[3]
  mutagenic call: active; positive
Test System: AMES SALMONELLA TYPHIMURIUM, Strain/Indicator: TA1535, Metabolic Activation: NONE, Method: STANDARD PLATE
  mutagenic call: active; positive
